In ChEMBL document CHEMBL1201862, “PubChem BioAssay data set” (2004):
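96-well plates; 48 h exposure; 5 concentrations. Endpoints by linear interpolation between flanking doses. Not reached: highest tested concentration assigned. GI50: concentration for 50% inhibition of growth.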 The source made the active and inactive calls. Rule as the data show it: active = GI50 up to about 1.1 µM and inactive = higher.

Columns and labels:
Test in all cases: NCI-60 cell line screen, 48 h
COLO 205 = tested on: COLO 205
DU-145 = tested on: DU-145
HCT-116 = tested on: HCT-116
HOP-62 = tested on: HOP-62
HOP-92 = tested on: HOP-92
HT-29 = tested on: HT-29
Hs-578T = tested on: Hs-578T
MDA-MB-435 = tested on: MDA-MB-435
MOLT-4 = tested on: MOLT-4
NCI-H460 = tested on: NCI-H460
OVCAR-4 = tested on: OVCAR-4
OVCAR-8 = tested on: OVCAR-8
RPMI-8226 = tested on: RPMI-8226
SF-295 = tested on: SF-295
SK-MEL-28 = tested on: SK-MEL-28
SNB-75 = tested on: SNB-75
SW-620 = tested on: SW-620
UACC-257 = tested on: UACC-257
SK-OV-3 = tested on: SK-OV-3
T47D = tested on: T47D

Measured: GI50

c1ccc(/N=C2\SC(c3ccccc3)CN2C23CC4CC(CC(C4)C2)C3)cc1 (centres undefined)
inactive: COLO 205 > 100 µM | DU-145 > 100 µM | HCT-116 > 100 µM | HOP-62 > 100 µM | HOP-92 > 100 µM | HT-29 > 100 µM | Hs-578T > 100 µM | MDA-MB-435 > 100 µM | MOLT-4 > 100 µM | NCI-H460 > 100 µM | OVCAR-4 > 100 µM | OVCAR-8 > 100 µM | RPMI-8226 > 100 µM | SF-295 > 100 µM | SK-MEL-28 > 100 µM | SNB-75 > 100 µM | SW-620 > 100 µM | UACC-257 > 100 µM

Cc1cn(C2CC(N=[N+]=[N-])C(C(=O)O)O2)c(=O)[nH]c1=O (centres undefined)
inactive: COLO 205 > 100 µM | DU-145 > 100 µM | HCT-116 > 100 µM | HOP-62 > 100 µM | HOP-92 > 100 µM | HT-29 > 100 µM | Hs-578T > 100 µM | MDA-MB-435 > 100 µM | MOLT-4 > 100 µM | NCI-H460 > 100 µM | OVCAR-4 > 100 µM | OVCAR-8 > 100 µM | RPMI-8226 > 100 µM | SK-OV-3 > 100 µM | SNB-75 > 100 µM | SW-620 > 100 µM | UACC-257 > 100 µM

C#CCOCC12C=CC(O1)C1C(=O)OCC12 (centres undefined)
inactive: COLO 205 > 100 µM | DU-145 > 100 µM | HCT-116 > 100 µM | HOP-62 > 100 µM | HT-29 > 100 µM | Hs-578T > 100 µM | MDA-MB-435 > 100 µM | MOLT-4 > 100 µM | NCI-H460 > 100 µM | OVCAR-4 > 100 µM | OVCAR-8 > 100 µM | RPMI-8226 > 100 µM | SF-295 > 100 µM | SK-MEL-28 > 100 µM | SK-OV-3 > 100 µM | SNB-75 > 100 µM | SW-620 > 100 µM | T47D > 100 µM | UACC-257 > 100 µM

CC(C)/C(Cl)=N\OC(=O)Nc1ccc(F)cc1F
inactive: COLO 205 1.87 µM | DU-145 17.8 µM | HCT-116 3.78 µM | HOP-62 17.6 µM | HOP-92 1.82 µM | HT-29 3.82 µM | Hs-578T 23.3 µM | MOLT-4 1.85 µM | NCI-H460 20.7 µM | OVCAR-4 3.76 µM | OVCAR-8 15.6 µM | RPMI-8226 4.69 µM | SF-295 15.1 µM | SK-MEL-28 11 µM | SK-OV-3 17.1 µM | SNB-75 17.3 µM | SW-620 1.78 µM | T47D 14.4 µM | UACC-257 14.1 µM

CC1=CC(=O)/C(=C(/C)NCCN(CCN/C(C)=C2\C(=O)C=C(C)OC2=O)CCN/C(C)=C2\C(=O)C=C(C)OC2=O)C(=O)O1
inactive: COLO 205 > 100 µM | HCT-116 > 100 µM | HOP-62 > 100 µM | HT-29 > 100 µM | Hs-578T > 100 µM | MDA-MB-435 > 100 µM | MOLT-4 > 100 µM | NCI-H460 > 100 µM | OVCAR-4 > 100 µM | OVCAR-8 > 100 µM | RPMI-8226 > 100 µM | SF-295 > 100 µM | SK-MEL-28 > 100 µM | SK-OV-3 > 100 µM | SNB-75 > 100 µM | SW-620 > 100 µM | T47D > 100 µM | UACC-257 > 100 µM

COc1cc(N(Cc2ccc3nc(OC)c(OC)nc3c2)Cc2ccc3nc(OC)c(OC)nc3c2)cc(OC)c1OC
inactive: COLO 205 > 50 µM | DU-145 > 50 µM | HCT-116 33.2 µM | HOP-62 1.3 µM | HT-29 > 50 µM | Hs-578T 7.67 µM | MDA-MB-435 > 50 µM | MOLT-4 > 50 µM | OVCAR-4 > 50 µM | OVCAR-8 > 50 µM | RPMI-8226 > 50 µM | SF-295 19.6 µM | SK-MEL-28 > 50 µM | SK-OV-3 29.1 µM | SNB-75 6.9 µM | SW-620 > 50 µM | T47D > 50 µM | UACC-257 > 50 µM

Clc1ccc(CNc2nc(Cl)c3nc[nH]c3n2)cc1Cl
inactive: COLO 205 22.6 µM | DU-145 19 µM | HCT-116 15.9 µM | HOP-62 27.4 µM | HT-29 26.4 µM | Hs-578T 21 µM | MDA-MB-435 32 µM | MOLT-4 33.6 µM | NCI-H460 28.2 µM | OVCAR-4 35.4 µM | OVCAR-8 17.9 µM | SF-295 20 µM | SK-OV-3 20.6 µM | SNB-75 32.1 µM | T47D 6.71 µM | UACC-257 13.5 µM

CC/C=N\N1C(N)=C(C#N)C(C#N)(C#N)C1CC (centres undefined)
inactive: COLO 205 > 100 µM | DU-145 > 100 µM | HCT-116 10.8 µM | HOP-62 > 100 µM | HT-29 28.8 µM | Hs-578T > 100 µM | MDA-MB-435 50.6 µM | MOLT-4 39 µM | OVCAR-4 91.2 µM | OVCAR-8 44.9 µM | RPMI-8226 83 µM | SF-295 > 100 µM | SK-MEL-28 56.2 µM | SK-OV-3 > 100 µM | SNB-75 81.8 µM | SW-620 61.7 µM | T47D > 100 µM | UACC-257 > 100 µM

Cc1ccc(/N=N/c2ccc(N)cc2C)c(S(N)(=O)=O)c1
inactive: COLO 205 76.7 µM | DU-145 > 100 µM | HCT-116 75.3 µM | HOP-62 > 100 µM | HOP-92 32.1 µM | HT-29 82.4 µM | Hs-578T 63 µM | MOLT-4 64 µM | NCI-H460 49.3 µM | OVCAR-4 > 100 µM | OVCAR-8 76.7 µM | RPMI-8226 70.8 µM | SF-295 56.1 µM | SK-MEL-28 > 100 µM | SK-OV-3 > 100 µM | SNB-75 61.9 µM | SW-620 > 100 µM | T47D 48.8 µM | UACC-257 45.2 µM

NC(=O)c1nnc2c(F)cccc2c1N
inactive: COLO 205 73.3 µM | DU-145 > 100 µM | HCT-116 64.4 µM | HOP-62 > 100 µM | HT-29 > 100 µM | Hs-578T > 100 µM | MDA-MB-435 77.3 µM | MOLT-4 > 100 µM | NCI-H460 72.1 µM | OVCAR-4 > 100 µM | OVCAR-8 > 100 µM | RPMI-8226 > 100 µM | SF-295 > 100 µM | SK-OV-3 45.2 µM | SNB-75 > 100 µM | SW-620 27.4 µM | T47D > 100 µM | UACC-257 > 100 µM

Nc1ncnc2c1ncn2C1C=CC(CP(=O)(O)O)C1 (centres undefined)
inactive: COLO 205 > 100 µM | DU-145 > 100 µM | HCT-116 > 100 µM | HOP-62 > 100 µM | HT-29 > 100 µM | Hs-578T 11 µM | MDA-MB-435 > 100 µM | MOLT-4 > 100 µM | NCI-H460 > 100 µM | OVCAR-4 > 100 µM | OVCAR-8 > 100 µM | RPMI-8226 > 100 µM | SF-295 > 100 µM | SK-MEL-28 > 100 µM | SK-OV-3 > 100 µM | SNB-75 > 100 µM | SW-620 > 100 µM | T47D > 100 µM | UACC-257 > 100 µM
